Results reported in patent US20230149282A1, “High-Potency Vitamin C Chemical Peeling Solutions” (Baek Clinical Inc., priority 2020, published 2023).

Tests used:
[1] = use of 4% HQ or 5% Vitamin C; cited from earlier work
[2] = Solubility of optional additional components in polyol solvents; format: physicochemical
Source text: Additional ingredients were chosen for their compatibility with (e.g., miscibility in) 1,3 propanediol, 1,2 propanediol, and/or 1,3 butanediol.

[3] = cream containing 10% MAP; cited from earlier work
[4] = Solubilization of ascorbic acid with urea as co-solvent (recrystallization); format: physicochemical; conditions: in 1,3 propanediol
Source text: Maximum saturation level experiments
Next, concentrations of ascorbic acid beyond the aforementioned maximum concentration are solubilized, using urea as a co-solvent.

[5] = Comparative studies: solubilization of prior-art ascorbic acid compositions; format: physicochemical; conditions: ascorbic acid together with urea in propylene glycol, butylene glycol and propanediol
Experimental: This example was reproduced.
All mixtures were heated to 85° C.

[6] = concentrations of 0.2%; cited from earlier work

O=C1O[C@H]([C@@H](O)CO)C(O)=C1O [AA, L-ascorbic acid]
improvement [1]: 62.5%

COc1cc(CC(C(C)=O)C(C)=O)ccc1O [Acetyl zingerone]
solubility ([2]; at 0.5-1% in 1,3 propanediol, 1,2 propanediol and 1,3 butanediol): readily soluble

O=C(O)CCCCCCCC(=O)O [AzA, Azelaic acid]
concentration of AzA that can be solubilized ([2]; in 1,3 propanediol): up to 10% | effect of hydroxyethyl urea on solubility of AzA ([2]; in 1,3 propanediol): slightly increased | AzA solubilized together with ascorbic acid and urea ([2]; with 10% Ascorbic Acid (AA), 5% Urea in 1,3 propanediol solvent base): 7.5%

Oc1ccc(O)cc1 [HQ, hydroquinone]
improvement [1]: 93% | side-effects [1]: 68.7%

O=C1O[C@H]([C@@H](O)CO)C([O-])=C1OP(=O)([O-])[O-].O=C1O[C@H]([C@@H](O)CO)C([O-])=C1OP(=O)([O-])[O-].[Mg+2].[Mg+2].[Mg+2] [MAP, magnesium ascorbyl phosphate]
brightening/lightening of the appearance of the skin [3]: effectively brighten/lighten the appearance of the skin

NC(N)=O [U, urea]
minimum amount U required to solubilize 20% AA [4]: ~10% | solubility of U (saturation reached before recrystallization of U) [4]: ~ 27.8% | maximum concentrations soluble before urea itself starts to precipitate [5]: 20%

CC1(C)[C@@H](O[C@H]2O[C@H](C(=O)O)[C@@H](O)[C@H](O)[C@H]2O[C@@H]2O[C@H](C(=O)O)[C@@H](O)[C@H](O)[C@H]2O)CC[C@]2(C)[C@H]3C(=O)C=C4[C@@H]5C[C@@](C)(C(=O)O)CC[C@]5(C)CC[C@@]4(C)[C@]3(C)CC[C@@H]12 [glycyrrhizic acid, Glycyrrhizic acid]
solubility ([2]; in 1,3-propanediol): shows solubility

Madecassoside
solubility ([2]; at 0.2% in 1,3 propanediol, 1,2 propanediol and 1,3 butanediol): soluble | reduction of erythema (skin redness) [6]: desirable ability to reduce erythema
